Reference: patent publication US7205382B2, “Peptides, the production and use thereof for binding immunoglobulins” (Fresenius Medical Care Affina GmbH, priority 2000, dated 2007)
Bridge positions count the residues as written; N and C are the ends. Square brackets hold non-standard residues; d marks the D form. Ends that are not written are not given here. cellulose = not defined here; βAla = NCCC(=O)O

Assays:
Type in all cases: binding
Parameters in all cases: key: No binding of immunoglobulin for the defined peptide variant, detection negative: 0; Binding of immunoglobulin for the defined peptide variant, detection positive: +
serum albumin = test: Cellulose-immobilized 13-mer peptide variants incubated with serum albumin (negative control), anti-human IgG-AP detection; settings: blocking buffer without addition, 3 h room temperature
Method in brief: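 Peptides on cellulose via a (βA)(βA) spacer were blocked in T-TBS (pH 8.0) with 5% saccharose and 4% BSA, then exposed for 3 h at room temperature to IgG-Fc (1 μg/ml), serum diluted 1:10,000, or blocking buffer alone. Bound IgG was detected with AP-anti-human IgG (1.2 μg/ml) and NBT/BCIP colour development.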

[1] = system: immunoglobulins in human plasma; test: Cellulose-immobilized 13-mer peptide variants incubated with human plasma, anti-human IgG-AP detection; settings: human plasma as sample, diluted 1:10,000 in blocking buffer, 3 h room temperature
Method in brief: (§1)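 Membrane-bound peptides, spaced by two β-alanines, are probed with 1 μg/ml IgG-Fc or 1:10,000 serum for 3 h at room temperature; blocking buffer alone acts as control. Detection uses anti-human IgG-AP (1.2 μg/ml) and NBT/BCIP.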

human IgG-Fc = test: Cellulose-immobilized 13-mer peptide variants incubated with human IgG-Fc, anti-human IgG-AP detection; settings: IgG-Fc 1 μg/ml in blocking buffer, 3 h room temperature
Method in brief: as §1

Row | Substance | Result for incubation with serum albumin (immunoglobulin binding detection) (serum albumin) | Result for incubation with human plasma (immunoglobulin binding detection) [1] | Result for incubation with human IgG-Fc (immunoglobulin binding detection) (human IgG-Fc)
1 | 05E: cellulose-bound 13-mer variant DCAWELGELVWCT-(βA)(βA) (disulfide 2-12 (inferred); not fully specified (N-terminus, C-terminus); printed as DCAWELGELVWCT-(βA)(βA); also: cellulose-bound) | 0 | 0 | 0
2 | 02P: cellulose-bound 13-mer variant DPAWHLGELVWCT-(βA)(βA) (DPAWHLGELVWCT[βAla][βAla]; not fully specified; printed as DPAWHLGELVWCT-(βA)(βA); also: cellulose-bound) | 0 | 0 | 0
3 | 10H: cellulose-bound 13-mer variant DCAWHLGELHWCT-(βA)(βA) (DCAWHLGELHWCT-{βAla-βAla-cellulose}; disulfide 2-12 (inferred); reading uncertain; also: printed as DCAWHLGELHWCT-(βA)(βA)) | 0 | 0 | 0
4 | 02Y: cellulose-bound 13-mer variant DYAWHLGELVWCT-(βA)(βA) (DYAWHLGELVWCT[βAla][βAla]; not fully specified; printed as DYAWHLGELVWCT-(βA)(βA); also: cellulose-bound) | 0 | 0 | 0
5 | 06G: cellulose-bound 13-mer variant DCAWHGGELVWCT-(βA)(βA) (DCAWHGGELVWCT[βAla][βAla]; disulfide 2-12 (inferred); not fully specified (N-terminus); printed as DCAWHGGELVWCT-(βA)(βA); also: cellulose-bound) | 0 | + | +
6 | 01H: cellulose-bound 13-mer variant HCAWHLGELVWCT-(βA)(βA) (HCAWHLGELVWCT-{βAla-βAla-cellulose}; disulfide 2-12 (inferred); reading uncertain; also: printed as HCAWHLGELVWCT-(βA)(βA)) | 0 | 0 | +
7 | 11Q: cellulose-bound 13-mer variant DCAWHLGELVQCT-(βA)(βA) | 0 | 0 | 0
8 | 09K: cellulose-bound 13-mer variant DCAWHLGEKVWCT-(βA)(βA) (DCAWHLGEKVWCT-{βAla-βAla-cellulose}; disulfide 2-12 (inferred); reading uncertain; also: printed as DCAWHLGEKVWCT-(βA)(βA)) | 0 | + | +
9 | 10N: cellulose-bound 13-mer variant DCAWHLGELNWCT-(βA)(βA) (DCAWHLGELNWCT-{βAla-βAla-cellulose}; disulfide 2-12 (inferred); reading uncertain; also: printed as DCAWHLGELNWCT-(βA)(βA)) | 0 | 0 | 0

Other lines, results leading:

Row | Result for incubation with serum albumin (immunoglobulin binding detection) (serum albumin) | Result for incubation with human plasma (immunoglobulin binding detection) [1] | Result for incubation with human IgG-Fc (immunoglobulin binding detection) (human IgG-Fc) | Substance
10 | 0 | 0 | + | 11K: cellulose-bound 13-mer variant DCAWHLGELVKCT-(βA)(βA)
11 | 0 | 0 | 0 | 08T: cellulose-bound 13-mer variant DCAWHLGTLVWCT-(βA)(βA) (DCAWHLGTLVWCT-{βAla-βAla-cellulose}; disulfide 2-12 (inferred); reading uncertain; also: printed as DCAWHLGTLVWCT-(βA)(βA))
12 | 0 | 0 | 0 | 05P: cellulose-bound 13-mer variant DCAWPLGELVWCT-(βA)(βA) (disulfide 2-12 (inferred); not fully specified (N-terminus, C-terminus); printed as DCAWPLGELVWCT-(βA)(βA); also: cellulose-bound)
13 | 0 | 0 | 0 | 11T: cellulose-bound 13-mer variant DCAWHLGELVTCT-(βA)(βA)
14 | 0 | 0 | 0 | 07I: cellulose-bound 13-mer variant DCAWHLIELVWCT-(βA)(βA) (DCAWHLIELVWCT-{βAla-βAla-cellulose}; disulfide 2-12 (inferred); not fully specified (N-terminus); printed as DCAWHLIELVWCT-(βA)(βA); reading uncertain)
15 | 0 | 0 | 0 | 01Y: cellulose-bound 13-mer variant YCAWHLGELVWCT-(βA)(βA) (YCAWHLGELVWCT-{βAla-βAla-cellulose}; disulfide 2-12 (inferred); reading uncertain; also: printed as YCAWHLGELVWCT-(βA)(βA))
16 | 0 | 0 | 0 | 02F: cellulose-bound 13-mer variant DFAWHLGELVWCT-(βA)(βA) (DFAWHLGELVWCT[βAla][βAla]; not fully specified; printed as DFAWHLGELVWCT-(βA)(βA); also: cellulose-bound)
17 | 0 | 0 | 0 | 03L: cellulose-bound 13-mer variant DCLWHLGELVWCT-(βA)(βA) (DCLWHLGELVWCT-{βAla-βAla-cellulose}; disulfide 2-12 (inferred); reading uncertain; also: printed as DCLWHLGELVWCT-(βA)(βA))
18 | 0 | 0 | 0 | 11N: cellulose-bound 13-mer variant DCAWHLGELVNCT-(βA)(βA)
